Experimental data: the supplement of paper PMC10307832

How the values were obtained:
Test in all cases: relative viability (nuclei count vs DMSO), 5 days (fraction); higher = more cells survive
[1] = compound: C=CC(=O)N1CCC[C@@H](n2nc(-c3ccc(Oc4ccccc4)cc3)c3c(N)ncnc32)C1 [Ibrutinib] + CS(=O)(=O)CCNCc1ccc(-c2ccc3ncnc(Nc4ccc(OCc5cccc(F)c5)c(Cl)c4)c3c2)o1 [Lapatinib] (partner 2 µM)
Summary of the method: (§1)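 Relative viability divides the nuclei count in treated wells by that in vehicle wells. Lung cancer cell lines were seeded in 1536-well plates, dosed by pin tool the next day, and fixed and stained after 5 days in one step with final 0.05% Triton X-100, 1% formaldehyde and 1 ug/ml Hoechst. Dosing was a single drug or a fixed anchor-drug dose plus five library-drug doses (not always all listed) in √10 steps, and values are medians of duplicate plates imaged at 4×.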

[2] = compound: C=CCc1cccc(/C=N/NC(=O)CN2CCN(Cc3ccccc3)CC2)c1O [PAC-1] + COc1cccc2cc(-c3nc([C@H]4CC[C@H](C(=O)O)CC4)n4ncnc(N)c34)[nH]c12 [OSI-027] (partner 0.5 µM)
Summary of the method: as §1

[3] = compound: C=CC(=O)N1CCC[C@@H](n2nc(-c3ccc(Oc4ccccc4)cc3)c3c(N)ncnc32)C1 [Ibrutinib] + CCNC(=O)c1noc(-c2cc(C(C)C)c(O)cc2O)c1-c1ccc(CN2CCOCC2)cc1 [Luminespib] (partner 0.01 µM)
Summary of the method: as §1

[4] = compound: C=CC(=O)Nc1cc(-n2c(=O)ccc3cnc4ccc(-c5ccc(NS(C)(=O)=O)cc5)cc4c32)ccc1C [BMX-IN-1] + CC1(C)CCC(c2ccc(Cl)cc2)=C(CN2CCN(c3ccc(C(=O)NS(=O)(=O)c4ccc(N[C@H](CCN5CCOCC5)CSc5ccccc5)c(S(=O)(=O)C(F)(F)F)c4)cc3)CC2)C1 [Navitoclax] (partner 0.5 µM)
Summary of the method: as §1

Cell Line	relative viability ([1]; first compound 0.005 µM)	relative viability ([1]; first compound 0.01581 µM)	relative viability ([1]; first compound 0.05 µM)	relative viability ([1]; first compound 0.1581 µM)	relative viability ([1]; first compound 0.5 µM)	relative viability ([2]; first compound 0.02 µM)	relative viability ([2]; first compound 0.06325 µM)	relative viability ([2]; first compound 0.2 µM)	relative viability ([2]; first compound 2 µM)	relative viability ([3]; first compound 0.005 µM)	relative viability ([3]; first compound 0.01581 µM)	relative viability ([3]; first compound 0.05 µM)	relative viability ([3]; first compound 0.1581 µM)	relative viability ([3]; first compound 0.5 µM)	relative viability ([4]; first compound 0.02 µM)	relative viability ([4]; first compound 0.2 µM)	relative viability ([4]; first compound 0.6325 µM)	relative viability ([4]; first compound 2 µM)
UMC-11	0.545	0.978	1.1	0.87	0.907	0.546	0.459	0.461	0.472	0.873	0.999	1.07	1.05	0.98	0.285	0.327	0.283	0.294
NCI-H1755		0.991	1.08	0.981	1.05	0.717	0.722	0.601	0.72	0.318	0.617	0.55	0.313	0.531	1.01	1.05	1.07	1.03
NCI-H1666	0.722	0.583	0.814	0.749	0.761	0.848	0.866	0.777	0.849	0.951	0.975	0.956	1.08	0.784	1.09	0.979	0.938	0.92
NCI-H23	0.943	1.19	1.18	1.15		0.629	0.493	0.589	0.65		0.22			0.248	0.979	0.85	0.858	0.738
COR-L23	1.24	0.948		0.964	0.982	0.885	0.771	0.724	0.698	0.605	0.681	0.722	0.597	0.622	1.52	1.46	1.14	1.02
PC-14	0.308	0.302	0.285	0.322	0.327	1.07	0.727	0.779	0.911	0.167	0.266	0.135	0.127	0.179	1.02	1.29	1.01	1.06
LCLC-97TM1	0.69	0.913	1.41		0.931	0.436	0.536	0.453	0.449	0.795	0.656	0.798	0.867	0.735	0.349	0.429	0.322	0.46
HOP-62	1.04	0.922	1.08	1.13	1.12	0.836	0.814	0.782	0.892		0.881	0.958	0.935	0.918	1.42	1.17	1.21	1.12
NCI-H727	0.734	0.735	1.2	0.496	0.852	0.641	0.689	0.619	0.622		0.597	0.282		0.516	0.333	0.443	0.471	0.426
NCI-H1734	0.843	1.01	1.14	1.19	1.04	0.607	0.589	0.522	0.642	0.208	0.189	0.235	0.188	0.175	1.01	0.907	0.953	0.949
NCI-H1651	0.699	0.756	0.796	0.723	0.906	0.766	0.744	0.64	0.612	0.847	1.05	0.93	0.876	0.921	1.24	1.2	1.02	1.04
NCI-H2170	0.247	0.258	0.245	0.25	0.26	0.701	0.631	0.784	0.645	0.435	0.425	0.446	0.741	0.344	0.742	0.634	0.689	0.623
NCI-H1650	0.685	0.734	0.843	0.682	0.844	0.569	0.614	0.55	0.612	0.211	0.196	0.192	0.194	0.209	1.16	1.25	1.36	1.25
LK-2	0.602	0.93	0.956	0.877	0.769	0.186	0.195	0.208	0.206		0.183	0.176	0.166	0.164	1.09	1.04	1.02	0.923
NCI-H2009	0.952	0.945	0.94	0.65	0.988	0.645	0.614	0.582	0.669	1.07	1.06	1.07	1.02	1.05	1.23	1.31	1.19	1.24
NCI-H2347	0.962	0.899	0.897	0.555	0.861	0.4	0.395	0.38	0.46		0.508	0.358	0.323	0.529	0.978	0.887	0.785	0.871
NCI-H460	1.18	0.892	0.96	0.94	1.11	0.582	0.727	0.626	0.637	0.0343	0.0329	0.0328	0.0586	0.0349			1.32	1.25
LC-2-ad	0.938	0.577	0.972	0.911	0.968	0.877	1.05	0.78	0.64	1.06	1.01	1.14	1.13		0.55	0.504	0.776	0.513
